Consider 17 compounds from patent US7595320B2, “Hydrazinocarbonyl-thieno[2,3-C]pyrazoles, process for preparing them, compositions containing them and use thereof” (Aventis Pharma S.A., priority 2005, dated 2009).

Holding throughout (type): biochemical
The target of one assay is T1, CDK2/cycline E (Homo sapiens, UniProt P24941).
T1 construct: made in house; host or cells: Sf21 insect cells (baculovirus coinfection)
In words: CDK2/cyclineE Flashplate test in 96-well format. The note with it: CDK2/cycline E complex, 1 μM ATP. The gist of the method:
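Recombinant human CDK2/cyclin E (His-tagged cyclin E, coexpressed in Sf21 cells), 20 nM, phosphorylates biotinylated pRb peptide (10 μM) with 1 μM ATP plus [γ-33P]ATP in HEPES pH 7.5, MgCl2, DTT at 30 °C. Inhibitors tested at 10 μM down to 0.014 μM; 33P incorporation read by scintillation on streptavidin plates.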

A further assay deals with T2, Aurora1 (Homo sapiens, UniProt Q96GD4).
T2 construct: His tag (N); made in house
Kind of assay: Aurora1 enzymatic test, NuMA phosphorylation with [33P]ATP, Flashplate. The note with it: Aurora-B/INCENP-C3 recombinant complex, 1 μM ATP. The procedure, abridged: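 Recombinant His-tagged Aurora-B/INCENP-C3 complex (10 nM) phosphorylates 500 nM His-NuMA fragment with 1 µM ATP plus [33P]ATP, 30 minutes at 37° C in Tris pH 7.5 with 5 mM MgCl2, on nickel-chelate Flashplates. Incorporated 33P counted; percent inhibition versus enzyme control after no-enzyme background subtraction.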

The next assay has as its target T3, Aurora2 (Homo sapiens, UniProt O14965).
T3 construct: Aurora2: whole recombinant protein comprising an N-terminal histidine tail; His tag (N); made in house; host or cells: E. coli
T3 sequence (O14965 1-403): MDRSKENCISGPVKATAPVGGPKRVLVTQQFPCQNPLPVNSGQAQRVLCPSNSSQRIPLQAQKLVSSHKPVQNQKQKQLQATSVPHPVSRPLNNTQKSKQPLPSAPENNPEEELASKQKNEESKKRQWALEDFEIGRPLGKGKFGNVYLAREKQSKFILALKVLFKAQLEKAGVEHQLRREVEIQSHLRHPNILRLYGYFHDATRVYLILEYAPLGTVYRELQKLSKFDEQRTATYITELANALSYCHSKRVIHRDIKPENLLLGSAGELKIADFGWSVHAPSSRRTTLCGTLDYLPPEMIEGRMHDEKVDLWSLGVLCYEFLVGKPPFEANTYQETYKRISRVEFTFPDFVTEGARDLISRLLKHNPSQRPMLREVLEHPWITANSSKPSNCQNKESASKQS
In words: Aurora2 enzymatic test, NuMA phosphorylation with [33P]ATP, Flashplate. The note with it: whole recombinant protein, 1 μM ATP. The gist of the method:
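Full-length His-tagged Aurora2 (E. coli, >82% pure) at 10 nM phosphorylated 500 nM His-NuMA fragment on Ni-chelate Flashplates. Conditions were pH 7.5 Tris buffer with 10 mM MgCl2, 1 μM ATP plus [33P]ATP, 30 min at 37 °C.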

For the next assay, the target named is T4, Tie2 (Homo sapiens, UniProt Q02763).
T4 construct: amino acids of the intracellular domain 776-1124; made in house; host or cells: baculovirus expression (pFastBacGT vector)
In words: Tie2 kinase test, phosphorylation of PLC with GST-Tie2. Conditions: GST-Tie2 intracellular domain 776-1124.

Counter-ions that a name gives are not always drawn.

T4 sequence (Q02763 776-1124): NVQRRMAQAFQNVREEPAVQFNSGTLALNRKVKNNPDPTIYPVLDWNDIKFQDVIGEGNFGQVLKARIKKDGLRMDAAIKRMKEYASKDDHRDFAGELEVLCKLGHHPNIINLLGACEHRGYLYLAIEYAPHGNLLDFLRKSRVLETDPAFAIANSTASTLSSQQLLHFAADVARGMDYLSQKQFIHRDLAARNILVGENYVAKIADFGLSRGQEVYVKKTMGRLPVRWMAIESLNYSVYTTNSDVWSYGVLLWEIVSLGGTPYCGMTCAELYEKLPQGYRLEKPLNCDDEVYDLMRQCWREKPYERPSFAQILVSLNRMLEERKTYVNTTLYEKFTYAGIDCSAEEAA
T2 sequence (Q96GD4 whole entry, species assumed): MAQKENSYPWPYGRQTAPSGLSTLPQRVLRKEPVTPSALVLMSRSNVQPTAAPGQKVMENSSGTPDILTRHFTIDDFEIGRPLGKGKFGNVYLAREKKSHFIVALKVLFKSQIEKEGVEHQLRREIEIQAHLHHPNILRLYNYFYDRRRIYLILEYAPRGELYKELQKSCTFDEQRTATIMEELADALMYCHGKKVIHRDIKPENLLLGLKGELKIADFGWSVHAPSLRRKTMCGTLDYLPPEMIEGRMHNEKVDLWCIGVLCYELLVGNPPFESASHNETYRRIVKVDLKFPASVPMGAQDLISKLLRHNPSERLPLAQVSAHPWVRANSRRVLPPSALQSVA
T2 sequence (Q9NQS7 835-903 partner limits assumed, species assumed): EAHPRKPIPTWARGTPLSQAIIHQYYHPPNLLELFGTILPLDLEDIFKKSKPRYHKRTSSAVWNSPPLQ

Take `CN1CCCN(Cc2ccc(C(=O)Nc3n[nH]c4sc(C(=O)NN(C)c5ccc(Cl)cc5)cc34)cc2)CC1` [Example 12b, 4-(4-methylperhydro-1,4-diazepin-1-ylmethyl)-N-[5-(N′-(4-chlorophenyl)-N′-methylhydrazinocarbonyl)-1H-thieno[2,3-c]pyrazol-3-yl]benzamide]: the concentration for half-maximal inhibition (IC50) at CDK2/cycline E is 40 nM; on Aurora1, 151 nM; at Aurora2 it was 68 nM; on Tie2 it was 218 nM.
For `CCc1ccccc1NNC(=O)c1cc2c(NC(=O)c3ccc(OC)cc3)n[nH]c2s1` [Example 5, N-{5-[N′-(2-ethylphenyl)hydrazinocarbonyl]-1H-thieno[2,3-c]pyrazol-3-yl}-4-methoxybenzamide], the IC50 at CDK2/cycline E turned out to be 664 nM; on Aurora1, 33 nM; on Aurora2 it was 28 nM; on Tie2, 75 nM.
For the compound `CC(C)CN(NC(=O)c1cc2c(NC(=O)c3ccc(N4CCN(C)CC4)cc3)n[nH]c2s1)c1ccc(F)cc1` [Example 42, N-{5-[N′-(4-fluorophenyl)-N′-isobutylhydrazinocarbonyl]-1H-thieno[2,3-c]pyrazol-3-yl}-4-(4-methylpiperazin-1-yl)benzamide], the IC50 on CDK2/cycline E was 1120 nM; on Aurora1, 24 nM; at Aurora2, 6 nM; at Tie2 it was 61 nM.
Consider `COc1ccc(C(=O)Nc2n[nH]c3sc(C(=O)NNc4ccccc4F)cc23)cc1` [Example 6, N-{5-[N′-(2-fluorophenyl)hydrazinocarbonyl]-1H-thieno[2,3-c]pyrazol-3-yl}-4-methoxybenzamide], for which the IC50 against CDK2/cycline E turned out to be 579 nM; on Aurora1, 14 nM; at Aurora2, 20 nM; against Tie2, 230 nM.
Turning to `CN(NC(=O)c1cc2c(NC(=O)c3ccc(CN4CCC4)cc3)n[nH]c2s1)c1ccccc1` [Example 19, 4-azetidin-1-ylmethyl-N-[5-(N′-methyl-N′-phenylhydrazinocarbonyl)-1H-thieno[2,3-c]pyrazol-3-yl]benzamide], the IC50 was 239 nM against CDK2/cycline E, 304 nM on Aurora1, 26 nM at Aurora2 and 888 nM on Tie2.
In the same order, the values of `CCN(NC(=O)c1cc2c(NC(=O)c3ccc(N4CCN(C)CC4)cc3)n[nH]c2s1)c1cccc(Br)c1` [Example 43, N-{5-[N′-(3-bromophenyl)-N′-ethylhydrazinocarbonyl]-1H-thieno[2,3-c]pyrazol-3-yl}-4-(4-methylpiperazin-1-yl)benzamide] are 32 nM, 5 nM, 1 nM and 8 nM.
In the case of `CN1CCN(c2ccc(C(=O)Nc3n[nH]c4sc(C(=O)NNCc5ccccc5)cc34)cc2)CC1` [Example 32, N-[5-(N′-benzylhydrazinocarbonyl)-1H-thieno[2,3-c]pyrazol-3-yl]-4-(4-methylpiperazin-1-yl)benzamide], the IC50 against CDK2/cycline E came out at 109 nM; at Aurora1, 25 nM; at Aurora2, 4 nM; against Tie2 it was 38 nM.
As to `CN1CCN(c2ccc(C(=O)Nc3n[nH]c4sc(C(=O)NN(C)c5ccc(Cl)cc5)cc34)cc2)CC1` [Example 28, N-{5-[N′-(4-chlorophenyl)-N′-methylhydrazinocarbonyl]-1H-thieno[2,3-c]pyrazol-3-yl}-4-(4-methylpiperazin-1-yl)benzamide], the IC50 came to 132 nM on CDK2/cycline E, 6 nM on Aurora1, 2 nM on Aurora2 and 106 nM against Tie2.
Take `COc1ccc(C(=O)Nc2n[nH]c3sc(C(=O)NN(Cc4ccccc4)c4ccccc4)cc23)cc1` [Example 4, N-[5-(N′-benzyl-N′-phenylhydrazinocarbonyl)-1H-thieno[2,3-c]pyrazol-3-yl]-4-methoxybenzamide]: the IC50 at CDK2/cycline E turned out to be 508 nM; on Aurora1, 6 nM; at Aurora2, 28 nM; at Tie2, 115 nM.
Turning to `COc1ccc(C(=O)Nc2n[nH]c3sc(C(=O)NNc4ccccn4)cc23)cc1` [Example 27, 4-methoxy-N-[5-(N′-pyrid-2-ylhydrazinocarbonyl)-1H-thieno[2,3-c]pyrazol-3-yl]benzamide], the IC50 against CDK2/cycline E came out at 669 nM; at Aurora1, 51 nM; on Aurora2, 31 nM; on Tie2 it was 294 nM.
As for `CN1CCN(Cc2cccc(C(=O)Nc3n[nH]c4sc(C(=O)NN(C)c5ccccc5)cc34)c2)CC1` [Example 16a, N-[5-(N′-methyl-N′-phenylhydrazinocarbonyl)-1H-thieno[2,3-c]pyrazol-3-yl]-3-(4-methylpiperazin-1-ylmethyl)-benzamide], the IC50 is 942 nM against CDK2/cycline E, 992 nM on Aurora1, 301 nM on Aurora2 and 3210 nM against Tie2.
The matching figures for `CCN(NC(=O)c1cc2c(NC(=O)c3ccc(N4CCN(C)CC4)cc3)n[nH]c2s1)c1cccc(C)c1` [Example 40, N-[5-(N′-ethyl-N′-m-tolylhydrazinocarbonyl)-1H-thieno[2,3-c]pyrazol-3-yl]-4-(4-methylpiperazin-1-yl)benzamide]: 105 nM, 11 nM, 17 nM and 25 nM.
The matching figures for `CCN(CC)Cc1ccc(C(=O)Nc2n[nH]c3sc(C(=O)NN(C)c4ccc(Cl)cc4)cc23)cc1` [Example 15b, N-{5-[N′-(4-chlorophenyl)-N′-methylhydrazinocarbonyl]-1H-thieno[2,3-c]pyrazol-3-yl}-4-diethylaminomethylbenzamide]: 82 nM, 329 nM, 37 nM and 393 nM.
In the case of `CC(C)N(Cc1ccc(C(=O)Nc2n[nH]c3sc(C(=O)NN(C)c4ccccc4)cc23)cc1)C(C)C` [Example 25, 4-[(diisopropylamino)methyl]-N-[5-(N′-methyl-N′-phenylhydrazinocarbonyl)-1H-thieno[2,3-c]pyrazol-3-yl]benzamide trifluoroacetate], the IC50 is 317 nM against CDK2/cycline E, 249 nM at Aurora1, 25 nM on Aurora2 and 328 nM against Tie2.
Consider `CN(NC(=O)c1cc2c(NC(=O)c3ccc(CN4CCCOCC4)cc3)n[nH]c2s1)c1ccc(Cl)cc1` [Example 21b, N-{5-[N′-(4-chlorophenyl)-N′-methylhydrazinocarbonyl]-1H-thieno[2,3-c]pyrazol-3-yl}-4-perhydro-1,4-oxazepin-4-ylmethylbenzamide], for which the IC50 at CDK2/cycline E was found to be 82 nM; on Aurora1, 160 nM; on Aurora2, 34 nM; against Tie2, 301 nM.
For `CN(NC(=O)c1cc2c(NC(=O)c3ccc(CN4CCCOCC4)cc3)n[nH]c2s1)c1ccccc1` [Example 21a, N-[5-(N′-methyl-N′-phenylhydrazinocarbonyl)-1H-thieno[2,3-c]pyrazol-3-yl]-4-perhydro-1,4-oxazepin-4-ylmethylbenzamide], the IC50 against CDK2/cycline E amounted to 122 nM; on Aurora1, 55 nM; on Aurora2 it was 14 nM; against Tie2, 430 nM.
Turning to `CN(NC(=O)c1cc2c(NC(=O)c3ccc(CN4CCCCC4)cc3)n[nH]c2s1)c1ccc(Cl)cc1` [Example 17b, N-[5-(N′-(4-chlorophenyl)-N′-methylhydrazinocarbonyl)-1H-thieno[2,3-c]-pyrazol-3-yl]-4-piperidin-1-ylmethylbenzamide], the IC50 against CDK2/cycline E was 93 nM; at Aurora1, 335 nM; on Aurora2, 35 nM; against Tie2 it was 230 nM.

What is called IC50 is the midpoint of a concentration-inhibition curve.
